Source: patent US20020125193A1, “Electrochemical analysis of coenzyme Q10 and reduced coenzyme Q10” (priority 2001, published 2002)
One block for each compound: values may come before it.

Legend:
[1] = Solubility in 1-propanol relative to other alcohols; format: physicochemical
From the text: Using 1-propanol as an extracting solvent allows fast and simple sample processing. The procedure has been simplified to a single extraction and no evaporation process is needed. This allows for efficient sample handling. Extraction of CoQ10H2 and CoQ10 from a variety of biological matrices is made facile with 1-propanol, because it can be mixed with water in any proportion. […] Thus, 1-propanol is an effective extraction solvent (Table 2). The 1-propanol extract can be directly analyzed by the described HPLC-EC method. Furthermore, this procedure takes advantage of the use of CoQ9 as an internal standard. Because the levels of CoQ9 in human blood are negligible, it is desirable to spike control samples with this CoQ9 to validate the extraction process.

[2] = CoQ10H2 and TQ10 in paired heparin versus EDTA plasma samples by HPLC-EC; format: physicochemical, human
Description: (§1) According to the present invention, venous blood is collected into a VACUTAINER containing heparin as anticoagulant and mixed gently by inversion 5-6 times. At this point the blood-heparin tube is securely capped, and is then placed in ice and/or kept in refrigeration prior to processing. The blood-heparin tube should be processed within 4 hours. Blood samples should not be collected in tubes containing metal chelators, such as ethylenediaminetetraacetic acid (EDTA). The blood-heparin tube is subject to centrifugation at an appropriate speed such as 3000 rpm for 10 minutes at 4° C. Heparinized plasma is separated from red blood cells and placed in a capped polypropylene tube and immediately stored at −75° C. or below until analysis.
Each frozen sample is thawed at room temperature, and 100 μl of this sample is placed in a 1.5-ml capped polypropylene tube containing 50 μl of internal standard solution (CoQ9, 2 μg/mL in 1-propanol). All the tubes are kept in an ice-bath. This is mixed with 850 μl of cold 1-propanol. The tubes are vortexed for 2 minutes on a mechanical vortexer and centrifuged for 10 min at 0-4° C. The resulting supernatant is separated from the precipitate and transferred to an autosampler glass vial. The sample vial is immediately placed in the autosampler tray at 0-4° C. […] Twenty samples can be analyzed sequentially, within 4 hours. […]

[3] = Stability of CoQ10H2 in refrigerated blood samples in vacutainers; format: physicochemical, human
Description: When blood samples in vacutainers are opened and kept refrigerated, the CoQ10H2:TQ10 ratios (n=30) in EDTA samples decreased by ˜30% over 7 h, whereas the CoQ10H2:TQ10 ratios in heparinized samples were stable over the same period with variation of less than 3% (median 0.949; range 0.927-0.970; n=30). There was as significant difference of CoQ10H2:TQ10 ratios in heparin in EDTA (P=0.028). The observed findings therefore reflect the effect of air-exposure on EDTA samples during the blood sampling procedure. The results also indicate that delays, in processing and analyzing EDTA samples would result in lowered and variable CoQ10H2:TQ10 ratios.
CoQ10H2 is not stable and is oxidized in air at room temperature. CoQ10H2 is unstable in whole blood, plasma and n-propanol extract when EDTA is used as anticoagulant. EDTA-anticoagulated blood loses approximately 15% of CoQ10H2 within 4 hours when stored in refrigeration (4° C.), whereas only <1% loss of CoQ10H2 occurs in heparin-anticoagulated blood under the same conditions (FIG. 6). When fresh blood samples in closed heparin vacutainers are kept refrigerated, no significant difference in CoQ10H2:TQ10 ratios was observed between samples stored for 0 h and 24 h (P=0.052). The median CoQ10H2:TQ10 ratio stored for 24 h was 0.955 (range 0.923-0.972; n=8) in comparison to the initial value of 0.964 (range 0.935-0.978; n=8). The CoQ10H2:TQ10 ratios decreased by ˜6% after 48 h and by ˜28% after 72 h. Storage of blood specimens in VACUTAINERS at +4° C. […] Okamoto et al reported the percentage of CoQ10H2 with respect to the TQ10 was constant in plasma for one day when kept at 2° C. and −10° C.

[4] = Stability of CoQ10H2 in frozen plasma; format: physicochemical, human; conditions: plasma kept frozen at −75° C. or below
Description: as §1
CoQ10H2 is not stable and is oxidized in air at room temperature. CoQ10H2 is unstable in whole blood, plasma and n-propanol extract when EDTA is used as anticoagulant. EDTA-anticoagulated blood loses approximately 15% of CoQ10H2 within 4 hours when stored in refrigeration (4° C.), whereas only <1% loss of CoQ10H2 occurs in heparin-anticoagulated blood under the same conditions (FIG. 6). When fresh blood samples in closed heparin vacutainers are kept refrigerated, no significant difference in CoQ10H2:TQ10 ratios was observed between samples stored for 0 h and 24 h (P=0.052). […]

[5] = Stability of CoQ10H2 in 1-propanol extract; format: physicochemical, human
Description: Each frozen sample is thawed at room temperature, and 100 μl of this sample is placed in a 1.5-ml capped polypropylene tube containing 50 μl of internal standard solution (CoQ9, 2 μg/mL in 1-propanol). All the tubes are kept in an ice-bath. This is mixed with 850 μl of cold 1-propanol. The tubes are vortexed for 2 minutes on a mechanical vortexer and centrifuged for 10 min at 0-4° C. The resulting supernatant is separated from the precipitate and transferred to an autosampler glass vial. The sample vial is immediately placed in the autosampler tray at 0-4° C. A batch of up to 20 samples can be extracted and processed at the same time. An aliquot of 20 μl of 1-propanol extract from a vial is injected immediately onto an automated HPLC. Twenty samples can be analyzed sequentially, within 4 hours.

[6] = cited from earlier work

solubility in alcohols [1]: highest solubility in 1-propanol
Structure (SMILES): COC1=C(OC)C(=O)C(C/C=C(\C)CC/C=C(\C)CC/C=C(\C)CC/C=C(\C)CC/C=C(\C)CC/C=C(\C)CC/C=C(\C)CC/C=C(\C)CC/C=C(\C)CCC=C(C)C)=C(C)C1=O [CoQ10, ubiquinone-10, reference compound]

mean ratio of CoQ10H2:TQ10 ([2]; EDTA-plasma): 91.5(±4.4) %
mean ratio of CoQ10H2:TQ10 ([2]; heparinized plasma): 97.0(±1.4) %
decrease of CoQ10H2:TQ10 ratio ([3]; EDTA blood, vacutainers opened, refrigerated, over 7 h, n=30): ~30%
loss of CoQ10H2 ([3]; EDTA-anticoagulated blood, within 4 hours, 4° C.): approximately 15%
loss of CoQ10H2 ([3]; blood in VACUTAINERS at +4° C., 24 hours): < 3%
time CoQ10H2 is stable ([3]; blood in closed heparin VACUTAINERS kept refrigerated): at least 24 hours
median CoQ10H2:TQ10 ratio ([3]; closed heparin vacutainers, initial value (0 h), n=8): 0.964
decrease of CoQ10H2:TQ10 ratio ([3]; closed heparin vacutainers, refrigerated, after 48 h): ~6%
decrease of CoQ10H2:TQ10 ratio ([3]; closed heparin vacutainers, refrigerated, after 72 h): ~28%
median CoQ10H2:TQ10 ratio ([3]; closed heparin vacutainers, refrigerated, stored for 24 h, n=8): 0.955
loss of CoQ10H2 ([3]; heparin-anticoagulated blood, within 4 hours, 4° C.): < 1%
variation of CoQ10H2:TQ10 ratio ([3]; heparinized blood, vacutainers opened, refrigerated, over 7 h): less than 3%
median CoQ10H2:TQ10 ratio ([3]; heparinized blood, vacutainers opened, refrigerated, over 7 h, n=30): 0.949
time CoQ10H2 is stable [4]: at least 6 months
loss of CoQ10H2 ([5]; in 5 hours, 0-4° C.): 1%
CoQ10H2 oxidized ([5]; in an hour, room temperature): 3.75%
rate of CoQ10H2 oxidation ([5]; room temperature): ~2 nM/min
solubility in alcohols [1]: highest solubility in 1-propanol
Structure (SMILES): COc1c(O)c(C)c(C/C=C(\C)CC/C=C(\C)CC/C=C(\C)CC/C=C(\C)CC/C=C(\C)CC/C=C(\C)CC/C=C(\C)CC/C=C(\C)CC/C=C(\C)CCC=C(C)C)c(O)c1OC [CoQ10H2]
stability in ethanol solution ([6]; extracted from plasma, prepared in ethanol solution (Okamoto et al)): rapidly oxidized
percentage of CoQ10H2 with respect to the TQ10 ([6]; plasma, one day, 2° C. and −10° C. (Okamoto et al)): constant
rate of spontaneous oxidation to CoQ10 ([6]; room temperature): ~2 nM per min
